Experimental data from patent publication US20100129800A1, “POLYMERS AND THEIR USE AS FLUORESCENT LABELS” (priority 2007, published 2010).
Like-named read-outs stand apart in the source and are kept apart here.

How the values were obtained:
[1] = Fluorescence properties of the new compounds (excitation and emission wavelengths); assay type: physicochemical
[2] = system: c-myc promoter region G-quadruplex; details: 1 μM ligand, 24 hours, room temperature
Source text: (§1) Compounds that bind nucleic acids may show preference for certain sequences. This preference can be used for the detection of specific nucleic acid sequences. One of the methods used to analyse the sequence specificity of DNA-binding compounds is the competition dialysis (c.f. Ren, J. et al., “Sequence and structural selectivity of nucleic acid binding ligands”, Biochemistry, 1999, vol. 38, pp […]). In this method different nucleic acid structures are dialyzed against a common compound solution. […] The amount of compound present in each DNA sequence is measured by fluorescence.
(§2) Furthermore, the inventors analyzed the binding properties of two dimers of the invention, Act-p-Act and Act-p-Qut, in front of several DNA sequences which are known in the state in the art to be biologically-relevant G-quadruplex structures: • 5′- […]-3′, (SEQ ID NO: 1 supra) as thrombin-binding aptamer: G-quadruplex; • 5′- […]-3′ (SEQ ID NO: 2) as a fragment of the promoter region of c-myc oncogen (c.f. Siddiqui-Jain A. et al., “Direct evidence for a G-quadruplex in a promoter region and its targeting with a small molecule to repress c-myc transcription”, Proc. Natl. Acad. Sci. USA, 2002, v. 99, p. […]
(§3) The concentration of the polymer (which is determined by fluorescence spectroscopy) indicates its specificity for a specific sequence: the more higher is the concentration, more specific is for said sequence.

[3] = system: human telomere G-quadruplex; details: 1 μM ligand, 24 hours, room temperature
Source text: as §1, §2, §3

AT rich sequences = assay: Competitive dialysis; assay type: binding
Source text: as §1
(§4) We analysed the sequence specificity of the following polymers of the invention: Aca-p-Aca, QgpQgp(npa), Act-(p-Act)5, Act-p-Qut-p-Agt, Act-p-Qut-p-Act, Act-p-Qut-p-Nct, Qut-p-Qut-p-Qut, Act-p-Qut-p-Qut, and Act-p-Act-p-Act for DNA sequences: • duplex with an alternating CG sequence (5′-CGCGCG-T4-CGCGCG-3′); • duplex with a contiguous CG sequence (5′- CCCGGG-T4-CCCGGG-3′); • duplex with an alternating AT sequence (5′-[…]-T4-[…]); • duplex with a contiguous AT sequence (5′-[…]-T4-[…]); • a parallel triplex (5′-T20-3′-3′-T20-5′+A20); and • a G-quadruplex (thrombin-binding aptamer: 5′-[…]-3′ (SEQ ID NO 1); (c.f. Bock, L. C. et al., “Selection of single-stranded DNA molecules that bind and inhibit human thrombin”, Nature, 1992, vol. 355, pp 564-566).
(§5) Said DNA sequences have been used in order to determine: 1) the affinity of each one of the polymers for a specific tandem of nucleotides (CG, AT, GT); and 2) if the affinity for a specific tandem of nucleotides is affected by its distribution into the sequence (i.e., if the tandem is alternated or contiguous in the sequence).
(§6) The competition dialysis assay was performed placing into a beaker 200 ml of dialysate solution containing 1 μM of ligand in 2 mM sodium phosphate, 2 mM EDTA and 0.185 M NaCl pH 7.0. A volume of 0.1 ml (at 1 mg/ml) of each DNA samples was pipeted into a separate 0.1 ml dialysis unit (Mini Slide-A-lyzer 3.5K, Pierce). The dialysis units were placed in the beaker containing the dialysate solution using a floating device. The contents were allowed to equilibrate with continuous stirring for 24 hours at room temperature. At the end of the equilibration period, DNA samples were carefully removed to eppendorf tubes and were taken to a final concentration of 1% (w/v) sodium dodecyl sulfate (SDS). The concentration of polymer within each dialysis unit was then determined by fluorescence spectroscopy. The free polymer concentration was determined using an aliquot of the dialysate solution as well as with the solution coming from a blank (without DNA) dialysis unit.
as §3

[4] = system: duplex with a contiguous CG sequence (5′- CCCGGG-T4-CCCGGG-3′); assay: Competitive dialysis; assay type: binding
Source text: as §1, §4, §5, §6, §3

[5] = system: parallel triplex (5′-T20-3′-3′-T20-5′+A20); assay: Competitive dialysis; assay type: binding
Source text: as §1, §4, §5, §6, §3

[6] = system: G-quadruplex (thrombin-binding aptamer: 5′-GGTTGGTGTGGTTGG-3′); details: 1 μM ligand, 24 hours, room temperature
Source text: as §1
(§7) We analysed the sequence specificity of the following polymers of the invention: Aca-p-Aca, QgpQgp(npa), Act-(p-Act)5, Act-p-Qut-p-Agt, Act-p-Qut-p-Act, Act-p-Qut-p-Nct, Qut-p-Qut-p-Qut, Act-p-Qut-p-Qut, and Act-p-Act-p-Act for DNA sequences: • duplex with an alternating CG sequence (5′-CGCGCG-T4-CGCGCG-3′); • duplex with a contiguous CG sequence (5′- CCCGGG-T4-CCCGGG-3′); • duplex with an alternating AT sequence (5′-[…]-T4-[…]); • duplex with a contiguous AT sequence (5′-[…]-T4-[…]); • a parallel triplex (5′-T20-3′-3′-T20-5′+A20); and • a G-quadruplex (thrombin-binding aptamer: 5′-[…]-3′ (SEQ ID NO 1); (c.f. Bock, L. C. et al., “Selection of single-stranded DNA molecules that bind and inhibit human thrombin”, Nature, 1992, vol. 355, pp 564-566). […]

[7] = system: duplex with a contiguous AT sequence (5′-AAAATTTT-T4-AAAATTTT); details: 1 μM ligand, 24 hours, room temperature
Source text: as §1, §7

[8] = 1 μM ligand, 24 hours, room temperature

Row | Fluorescence Excitation (nm) ([1]; free compound) | Fluorescence emission (nm) ([1]; free compound) | Structure (SMILES) | affinity (concentration of polymer retained, by fluorescence) (AT rich sequences; [8]) | affinity (concentration of polymer retained, by fluorescence) [4, 8] | affinity (concentration of polymer retained, by fluorescence) [5, 8] | also measured
1 | 358 nm | 438 nm | CC(O)C(COP(=O)(O)OC(C)C(CO)NC(=O)c1c2ccccc2nc2ccccc12)NC(=O)c1c2ccccc2nc2c1[nH]c1ccccc12 (centres unmarked) [Example 27, O-{2-N-(Acridine-9-carbamoyl)-(1-hydroxybut-3-yl)} and O-{2-N-(10H-indolo[3,2-d]quinoline-11-carbamoyl)-3-hydroxybut-1-yl) phosphate] | – | – | – | affinity (concentration of polymer retained, by fluorescence) [2]: very high affinity; affinity (concentration of polymer retained, by fluorescence) [3]: very high affinity
2 | 353 nm | 440 nm | CC(O)C(COP(=O)(O)OC(C)C(COP(=O)(O)OC(C)C(CO)NC(=O)c1c2ccccc2nc2ccccc12)NC(=O)c1c2ccccc2nc2c1[nH]c1ccccc12)NC(=O)c1c2ccccc2nc2c1[nH]c1ccccc12 (centres unmarked) [Example 29, O-{2-N-(Acridine-9-carbamoyl)-(1-hydroxybut-3-yl)} phosphate (3-1) O-{2-N-(10H-indolo[3,2-d]quinoline-11-carbamoyl)-3-oxybut-1-yl} phosphate (3-1) O-(2-N-{10H-indolo[3,2-d]quinoline-11-carbamoyl}-3-hydroxybut-1-yl)] | higher affinity | higher affinity | higher affinity | –
3 | 349 nm | 495 nm | CC(=O)NCCN(CC(=O)NCCN(CC(=O)NCCCCCCO)C(=O)CNC(=O)c1c2ccccc2nc2c1[nH]c1ccccc12)C(=O)CNC(=O)c1c2ccccc2nc2c1[nH]c1ccccc12 [Example 48] | – | – | – | affinity (concentration of polymer retained, by fluorescence) [6]: high affinity; affinity (concentration of polymer retained, by fluorescence) [7]: high affinity

Second part, the compound before the results:

Row | Structure (SMILES) | Fluorescence Excitation (nm) ([1]; free compound) | Fluorescence emission (nm) ([1]; free compound) | affinity (concentration of polymer retained, by fluorescence) (AT rich sequences; [8]) | affinity (concentration of polymer retained, by fluorescence) [4, 8] | affinity (concentration of polymer retained, by fluorescence) [5, 8] | also measured
4 | CC(O)C(COP(=O)(O)OC(C)C(COP(=O)(O)OC(C)C(CO)NC(=O)c1c2ccccc2nc2c1[nH]c1ccccc12)NC(=O)c1c2ccccc2nc2c1[nH]c1ccccc12)NC(=O)c1c2ccccc2nc2c1[nH]c1ccccc12 (centres unmarked) [Example 42, O-{2-N-(10H-indolo[3,2-d]quinoline-11-carbamoyl)-3-oxybut-1-yl} phosphate (3-1) O-{2-N-(10H-indolo[3,2-d]quinoline-11-carbamoyl)-3-oxybut-1-yl} phosphate (3-1) O-(2-N-{10H-indolo[3,2-d]quinoline-11-carbamoyl}-3-hydroxybut-1-yl)] | 359 nm | 499 nm | higher affinity | higher affinity | higher affinity | –
5 | CC(O)C(COP(=O)(O)OC(C)C(COP(=O)(O)OC(C)C(CO)NC(=O)c1c2ccccc2nc2ccccc12)NC(=O)c1c2ccccc2nc2c1[nH]c1ccccc12)NC(=O)c1c2ccccc2nc2ccccc12 (centres unmarked) [Example 44, O-{2-N-(Acridine-9-carbamoyl)-(1-hydroxybut-3-yl)} phosphate (3-1) O-{2-N-(10H-indolo[3,2-d]quinoline-11-carbamoyl)-3-oxybut-1-yl} phosphate (3-1) O-{2-N-(acridine-9-carbamoyl)-(3-hydroxybut-1-yl)}] | – | – | – | – | – | affinity (concentration of polymer retained, by fluorescence) (AT rich sequences): higher affinity; affinity (concentration of polymer retained, by fluorescence) [4]: higher affinity; affinity (concentration of polymer retained, by fluorescence) [5]: higher affinity; Fluorescence Excitation (nm) [1]: 359 nm; Fluorescence emission (nm) [1]: 438 nm
